# From patent publication US4666897A, “Inhibition of mammalian collagenolytic enzymes by tetracyclines” (Research Foundation of State University, priority 1983, dated 1987)
# Assays:
# [1] = test system: fetal rat bones (radii and ulnae) in organ culture; experiment: PTH-induced bone resorption in organ culture (45calcium release); assay type: cell-based; details: for effect on PTH-enhanced bone resorption, in words: concentrations 0.2-300 μg/ml
# Description: The technique used to assess bone resorption is based on monitoring the release of radioactive calcium, previously incorporated by embryonic bones in vivo, during organ culture. Pregnant Sprague-Dawley rats were injected subcutaneously with 200 μCi of ^45 calcium chloride on the 18th day of gestation. The following day, the animals were killed, the fetuses removed, and the radii and ulnae dissected under aseptic conditions. […] The bones were then randomly distributed and each bone, either a radius or ulna, was incubated in 0.5 ml of culture media alone or in a media containing parathyroid hormone (PTH: human synthetic 1-34 peptide, Beckman Instruments, Inc., Palo Alto, California) added in a final concentration of 1.0 μg/ml; the experimental bones were incubated in the PTH containing medium to which was added different concentrations (0.2-300 μg/ml) of the antibiotics to be tested. The bones were cultured for 5 days, with the media being changed after day 2, and the incubation terminated. The bones were decalcified in 0.2 ml of 5% trichloroacetic acid and the ^45 calcium content of the residual bones and of the culture media was measured as described previously. (Werner and Raisz, Endocrinology, 90, 752 (1972 ) and Gomes, et. al., Calc. Tiss. Res., 19, 285 (1976)). The ^45 calcium released into the media was calculated as a percentage of the total radioactive calcium measured in the bones.
# [2] = biological target: T1, rat PMNL collagenolytic activity (PMNL collagenase) (Rattus norvegicus, UniProt O88766); experiment: Rat PMNL collagenolytic activity in vitro (14C-collagen gel lysis); assay type: biochemical; details: for effect on PMNL collagenolytic activity, in words / Collagenolytic Activity: % ^14 C-collagen gel lyzed: Table 2; for Collagenolytic Activity: % ^14 C-collagen gel lyzed: PMNL extract (30 × 10^6 PMNLs per ml) + 20 ug/ml, control extract 39.0
# T1 construct: An extract of PMNLs was prepared; from tissue; host or cells: extract of peritoneal exudate polymorphonuclear leucocytes of non-diabetic rats, elicited with glycogen
# Description: To test the effect of physiologic levels of minocycline (the concentration in human serum, during a therapeutic regimen, is approximately 2 ug/ml; that in the gingival crevicular fluid is 4-5 times greater; Ciancio, et. al., 1980, J. Periodontol., 51, 531-534) on mammalian collagenolytic activity in vitro, peritonealexudate polymorphomuclear leucocytes (PMNLs) were collected from 15 mole (non-diabetic) rats 4 hours after I.P. injection of 0.15% glycogen. An extract of PMNLs was prepared, 250 μl aliquots of this extract were incubated with ^14 C-glycine labeled collagen fibrils for 14 hours at 35° C. (in the presence or absence of minocycline, or EDTA, or additional CaCl2), and collagenolytic activity was measured as described by Nicoll, et al., (Experientia., 37, 315-317).
# The techniques used to measure the collagenolytic enzyme activity of gingival tissue in culture, and in polymorphonuclear leucocytes (PMNLs), are those described by Golub, et. al., (J. Dent. Res., 57, 520-525 (197)8) and Nicoll, et. al., (Experimentia, 37, 315-317, (1981)) with minor modifications.
# [3] = test system: GCF collagenase and gingival disease in diabetic twins; experiment: Human gingival crevicular fluid (GCF) study, diabetic twin brothers; assay type: in vivo; details: 7 days of treatment
# Description: In a separate study involving humans, gingival crevicular fluid (GCF) samples were collected on filter paper strips inserted into 8 interproximal pockets of selected teeth in the maxillary arch of two twin brothers with juvenile-onset (insulin-dependent) diabetes mellitus. Fluid volume was immediately determined on a modified Periotron (Model 6000, Harco Electronics Ltd., Winnipeg, Canada); then incubated with 10 μl (^3 H-methyl) collagen (20,675 DPM) and 70 μl buffer (50 mM Tris-HCl, pH 7.8, containing 0.2 M sodium chloride and 5 mM calcium chloride). The GCF samples (or reagent blanks or trypsin controls) were incubated at 27° C. for 18 hours with gentle shaking. The reaction was stopped and undigested collagen precipitated by adding 10 μl 0.1 M phenanthroline in dioxane/water (1:1, v/v), 10 μl of nonradioactive methylated carrier collagen (2 mg/ml) in 50 mM Tris-HCl buffer containing 1M NaCl (pH 7.0), and 100 μl dioxane. After mixing, the radiolabeled collagen degradation products were collected by filtration and counted in a liquid scintillation spectrometer (Golub, et. al., 1976, J. Dent. Res., 55, 1049). Using this technique, the reaction blank (no enzyme or GCF added) released about 10% of the total substrate counts; 2-20 ng bacterial collagenase produced a linear increase in the release of radioactive counts from the ^3 H-collagen substrate (the 20 ng level of enzyme degraded 60% of the collagen substrate); and 50 ng trypsin released less than 1% of the counts above blank values. GCF collagenase activity was expressed as units of equivalent activity of vertebrate collagenase (obtained from New England Nuclear, Cat. No. NEK-016); 1 unit was operationally defined as the amount of enzyme that degrades 1 μg of collagen per hour at 27° C.
# Four additional GCF samples were collected from other maxillary pockets of the same diabetic twin brothers on filter paper strips, their volume determined (see above), and collagenolytic activity assessed using the same procedure described above but with a different substrate (10 μl of (^3 H-propionate) collagen, NET-660, New England Nuclear Corp., Boston, Mass., 302,000 DPM).
# Half of the 12 GCF samples per subject were activated by pretreatment with 1.04 uM trypsin followed by the addition of a 5-fold molar excess of soybean trypsin inhibitor. Samples were selected to be treated or not treated with trypsin by matching them for Gingival Index (Loe and Silness, Acta. Odont. Scand., 21, 533-551 (1967)), GCF flow, and for pocket depth; the clincal parameters (GI, PD) were measured immediately after GCF collection. All measurements were carried out immediately before antibiotic coverage and after 7 days of treatment with either pencillin G (lg. per day; patient three) or the tetracycline minocycline (200 mg/day; patient one).
# [4] = test system: ^14 C-glycine labeled collagen fibrils; experiment: Lysis of 14C-collagen gel by control enzymes (no PMNL extract); assay type: biochemical; details: Table 1, 1 μg enzyme
# [5] = penicillin G 1 g per day (P. D.) or minocycline 200 mg/day (K. D.)
# T1 sequence (O88766 102-466): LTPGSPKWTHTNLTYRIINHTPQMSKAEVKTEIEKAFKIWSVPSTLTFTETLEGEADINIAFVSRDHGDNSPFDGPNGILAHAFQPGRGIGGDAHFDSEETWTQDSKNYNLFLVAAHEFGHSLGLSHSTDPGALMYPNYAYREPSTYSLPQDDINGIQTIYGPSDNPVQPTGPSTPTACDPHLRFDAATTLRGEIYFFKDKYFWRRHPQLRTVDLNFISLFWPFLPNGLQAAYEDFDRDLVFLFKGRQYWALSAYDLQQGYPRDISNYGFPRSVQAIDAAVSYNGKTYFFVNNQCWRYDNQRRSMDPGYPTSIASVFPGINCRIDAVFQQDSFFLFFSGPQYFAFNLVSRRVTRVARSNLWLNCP
molecule,measurement,setting,value
"PTH: parathyroid hormone, human synthetic 1-34 peptide, Beckman Instruments, final concentration 1.0 μg/ml",increase of the loss of radiolabeled calcium by addition of PTH,"[1]; PTH 1.0 μg/ml versus culture media alone, Tables 3-5",90-160%
same,^45 Calcium in Fetal Bone Released into Media (%) after 2 days incubation,"[1]; Table 3, PTH alone 1.0 μg/ml, no addition 19.9 ± 1.5",46.1 ± 1.9%
same,^45 Calcium in fetal bone Released into media (%) after 5 days incubation,"[1]; Table 3, PTH alone 1.0 μg/ml, no addition 27.6 ± 1.3",73.3 ± 1.3%
same,^45 Calcium in Fetal Bone Released into Media (%) after 2 days incubation,"[1]; Table 4, PTH alone, no addition 27.1 ± 1.0",61.6 ± 1.2%
same,^45 Calcium in Fetal Bone Released into Media (%) after 2 days incubation,"[1]; Table 4, PTH alone, no addition 50.8 ± 1.8",97.9 ± 0.7%
same,^45 Calcium in Fetal Bone Released into Media (%) after 2 days incubation,"[1]; Table 5, PTH alone, no addition 22.4 ± 0.7",51.2 ± 1.4%
same,^45 Calcium in fetal bone Released into media (%) after 5 days incubation,"[1]; Table 5, PTH alone, no addition 46.7 ± 3.0",91.9 ± 1.7%
CC1(C)S[C@@H]2[C@H](NC(=O)[C@H](N)c3ccccc3)C(=O)N2[C@H]1C(=O)O [ampicillin],^45 Calcium in Fetal Bone Released into Media (%) after 2 days incubation,"[1]; Table 5, PTH + 6 μg/ml",52.3 ± 1.9%
same,^45 Calcium in fetal bone Released into media (%) after 5 days incubation,"[1]; Table 5, PTH + 6 μg/ml",92.2 ± 2.0%
same,^45 Calcium in Fetal Bone Released into Media (%) after 2 days incubation,"[1]; Table 5, PTH + 20 μg/ml",52.8 ± 1.7%
same,^45 Calcium in fetal bone Released into media (%) after 5 days incubation,"[1]; Table 5, PTH + 20 μg/ml",92.6 ± 0.5%
same,^45 Calcium in Fetal Bone Released into Media (%) after 2 days incubation,"[1]; Table 5, PTH + 40 μg/ml",51.9 ± 2.1%
same,^45 Calcium in fetal bone Released into media (%) after 5 days incubation,"[1]; Table 5, PTH + 40 μg/ml",94.2 ± 1.1%
same,^45 Calcium in Fetal Bone Released into Media (%) after 2 days incubation,"[1]; Table 5, PTH + 60 μg/ml",50.9 ± 1.7%
same,^45 Calcium in fetal bone Released into media (%) after 5 days incubation,"[1]; Table 5, PTH + 60 μg/ml",93.9 ± 0.7%
same,^45 Calcium in Fetal Bone Released into Media (%) after 2 days incubation,"[1]; Table 5, PTH + 200 μg/ml",50.8 ± 1.8%
same,^45 Calcium in fetal bone Released into media (%) after 5 days incubation,"[1]; Table 5, PTH + 200 μg/ml",91.4 ± 0.7%
same,"effect on PTH-enhanced bone resorption, in words",[1],no detectable effect
same,"effect on PMNL collagenolytic activity, in words",[2],ineffective
same,Collagenolytic Activity: % ^14 C-collagen gel lyzed,[2],35.7%
Cc1nnc(SCC2=C(C(=O)O)N3C(=O)[C@@H](NC(=O)Cn4cnnn4)[C@H]3SC2)s1 [cefazolin],^45 Calcium in Fetal Bone Released into Media (%) after 2 days incubation,"[1]; Table 5, PTH + 6 μg/ml",50.8 ± 1.3%
same,^45 Calcium in fetal bone Released into media (%) after 5 days incubation,"[1]; Table 5, PTH + 6 μg/ml",93.1 ± 0.5%
same,^45 Calcium in Fetal Bone Released into Media (%) after 2 days incubation,"[1]; Table 5, PTH + 20 μg/ml",54.2 ± 1.4%
same,^45 Calcium in fetal bone Released into media (%) after 5 days incubation,"[1]; Table 5, PTH + 20 μg/ml",93.6 ± 0.4%
same,^45 Calcium in Fetal Bone Released into Media (%) after 2 days incubation,"[1]; Table 5, PTH + 60 μg/ml",54.5 ± 1.2%
same,^45 Calcium in fetal bone Released into media (%) after 5 days incubation,"[1]; Table 5, PTH + 60 μg/ml",94.6 ± 1.2%
same,^45 Calcium in Fetal Bone Released into Media (%) after 2 days incubation,"[1]; Table 5, PTH + 120 μg/ml",50.3 ± 3.1%
same,^45 Calcium in fetal bone Released into media (%) after 5 days incubation,"[1]; Table 5, PTH + 120 μg/ml",90.2 ± 3.1%
same,^45 Calcium in Fetal Bone Released into Media (%) after 2 days incubation,"[1]; Table 5, PTH + 200 μg/ml",50.9 ± 1.3%
same,^45 Calcium in fetal bone Released into media (%) after 5 days incubation,"[1]; Table 5, PTH + 200 μg/ml",92.1 ± 0.6%
same,"effect on PTH-enhanced bone resorption, in words",[1],no detectable effect
same,"effect on PMNL collagenolytic activity, in words",[2],ineffective
same,Collagenolytic Activity: % ^14 C-collagen gel lyzed,[2],50.0%
CC1(C)S[C@@H]2[C@H](NC(=O)Cc3ccccc3)C(=O)N2[C@H]1C(=O)O [penicillin],"effect on PTH-enhanced bone resorption, in words",[1],no detectable effect
same,GCF flow,[3]; [5],little or no effect
same,Gram-positive and Gram-negative organisms in the pockets,[3]; [5],reduced the Gram-positive but increased the Gram-negative organisms
same,active GCF collagenase,[3]; [5],little or no effect
same,pocket depth,[3]; [5],little or no effect
same,total GCF collagenase (after trypsin pretreatment),[3]; [5],appeared to increase
same,Gingival Index (G. I.),[3]; penicillin G 1 g per day (patient three) or minocycline 200 mg/day (patient one),little or no effect
O=C(O)CN(CCN(CC(=O)O)CC(=O)O)CC(=O)O [EDTA],"effect on PMNL collagenolytic (collagenase) activity, in words",[2]; Table 1,completely inihibited
same,Collagenolytic Activity: % ^14 C-collagen gel lysed,"[2]; Table 1, PMNL extract + 54 mM, control extract 85.5",3.1%
[H]/N=C(/N)N[C@H]1[C@H](O)[C@@H](O)[C@H](O[C@@H]2O[C@@H](C)[C@](O)(C=O)[C@H]2O[C@@H]2O[C@@H](CO)[C@H](O)[C@@H](O)[C@@H]2NC)[C@@H](N/C(N)=N\[H])[C@@H]1O [streptomycin],"effect on PTH-enhanced bone resorption, in words",[1],no detectable effect
"C[C@H]1c2cccc(O)c2C(O)=C2C(=O)[C@]3(O)C(O)=C(C(N)=O)C(=O)[C@@H](N(C)C)[C@@H]3[C@@H](O)[C@@H]21 [doxycycline, Doxycycline]",^45 Calcium in Fetal Bone Released into Media (%) after 2 days incubation,"[1]; Table 4, first column, PTH + 0.2 μg/ml",56.6 ± 2.0%
same,^45 Calcium in Fetal Bone Released into Media (%) after 2 days incubation,"[1]; Table 4, first column, PTH + 2.0 μg/ml",57.5 ± 2.5%
same,^45 Calcium in Fetal Bone Released into Media (%) after 2 days incubation,"[1]; Table 4, first column, PTH + 20 μg/ml",30.6 ± 1.7%
same,^45 Calcium in Fetal Bone Released into Media (%) after 2 days incubation,"[1]; Table 4, first column, PTH + 200 μg/ml",18.8 ± 1.1%
same,^45 Calcium in Fetal Bone Released into Media (%) after 2 days incubation,"[1]; Table 4, second column, PTH + 0.2 μg/ml",97.1 ± 0.7%
same,^45 Calcium in Fetal Bone Released into Media (%) after 2 days incubation,"[1]; Table 4, second column, PTH + 2.0 μg/ml",93.5 ± 1.7%
same,^45 Calcium in Fetal Bone Released into Media (%) after 2 days incubation,"[1]; Table 4, second column, PTH + 20 μg/ml",35.3 ± 1.6%
same,^45 Calcium in Fetal Bone Released into Media (%) after 2 days incubation,"[1]; Table 4, second column, PTH + 200 μg/ml",28.7 ± 0.8%
same,"effect on PTH-enhanced bone resorption, in words",[1],inhibited bone resorption in a dose responsive manner
same,Collagenolytic Activity: % ^14 C-collagen gel lyzed,[2],4.5%
"CN(C)[C@@H]1C(=O)C(C(N)=O)=C(O)[C@@]2(O)C(=O)C3=C(O)c4c(O)cccc4[C@@](C)(O)[C@H]3[C@H](O)[C@@H]12 [Terramycin, Oxytetracycline]",Collagenolytic Activity: % ^14 C-collagen gel lyzed,[2],4.4%
"Trypsin: protease control for non-specific proteolysis of the collagen substrate (protein, UniProt P00760 24-246, looked up) Serine protease 1: IVGGYTCGANTVPYQVSLNSGYHFCGGSLINSQWVVSAAHCYKSGIQVRLGEDNINVVEGNEQFISASKSIVHPSYNSNTLNNDIMLIKLKSAASLNSRVASISLPTSCASAGTQCLISGWGNTKSSGTSYPDVLKCLKAPILSDSSCKSAYPGQITSNMFCAGYLEGGKDSCQGDSGGPVVCSGKLQGIVSWGSGCAQKNKPGVYTKVCNYVSWIKQTIASN",Collagenolytic Activity: % ^14 C-collagen gel lysed,[4],2.6%
